Results from patent US11976072B2, “Diacylglycerol kinase modulating compounds” (priority 2021, dated 2024).

Assays:
[1] = molecular target: human DGKα (Homo sapiens, UniProt P23743); test: DGKα Biochemical Activity Assay (ADP-Glo); details: recombinant DGKα 1 nM, 100 μM ATP, 18:1 DAG/POPS/octylglucoside micelles, 1 hour at 25° C.; geometric mean; read-out: HTBS DGKa 1X ATP KM IC50;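 further: luminescent detection of ADP produced as DGKα phosphorylates DAG to phosphatidic acid, IC50 from four-parameter nonlinear curve fit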
human DGKα, sequence (P23743 whole entry): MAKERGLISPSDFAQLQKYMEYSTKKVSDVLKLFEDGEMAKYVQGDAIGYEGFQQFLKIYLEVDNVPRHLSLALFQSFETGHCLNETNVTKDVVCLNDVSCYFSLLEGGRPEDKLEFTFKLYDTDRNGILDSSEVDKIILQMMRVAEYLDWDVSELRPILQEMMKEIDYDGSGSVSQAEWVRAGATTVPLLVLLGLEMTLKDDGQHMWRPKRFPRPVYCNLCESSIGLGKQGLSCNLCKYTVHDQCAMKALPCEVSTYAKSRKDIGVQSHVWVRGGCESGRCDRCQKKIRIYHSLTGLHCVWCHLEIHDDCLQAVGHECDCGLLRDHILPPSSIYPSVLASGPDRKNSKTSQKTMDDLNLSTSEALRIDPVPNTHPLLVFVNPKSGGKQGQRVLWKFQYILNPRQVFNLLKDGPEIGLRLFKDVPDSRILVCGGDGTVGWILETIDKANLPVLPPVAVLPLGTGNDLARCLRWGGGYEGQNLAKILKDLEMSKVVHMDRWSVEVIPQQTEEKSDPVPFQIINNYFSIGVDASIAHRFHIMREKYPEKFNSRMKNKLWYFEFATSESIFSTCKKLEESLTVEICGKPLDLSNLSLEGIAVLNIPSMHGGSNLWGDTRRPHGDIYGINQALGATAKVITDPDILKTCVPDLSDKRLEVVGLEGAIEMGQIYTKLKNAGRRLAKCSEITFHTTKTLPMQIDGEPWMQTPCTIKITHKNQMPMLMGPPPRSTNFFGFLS

[2] = tested on: Jurkat NFκB-luciferase cells; test: Jurkat NFκB-Luciferase Assay; type: cell-based; details: Homo sapiens; Jurkat NFκB-luciferase cells activated with anti-CD3 antibody (OKT3), 2.5 hrs at 37° C.; geometric mean; read-out: DGK NFKb Luciferase EC50
Method in brief: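 Jurkat NFκB-luciferase reporter cells at 1 million cells/ml in RPMI with 10% FBS were added to antibody-coated, compound-containing wells. Luciferase activity read by One-Glo Ex luminescence 7 minutes after reagent addition.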

| Compound | IC50 [1] | EC50 [2] |
| --- | --- | --- |
| CC1(C#Cc2cc(N(CC(F)F)c3nc4nncn4c4ccc(F)cc34)ccn2)CC1 [Example 102, N-(2,2-difluoroethyl)-7-fluoro-N-(2-((1-methylcyclopropyl)ethynyl)pyridin-4-yl)-[1,2,4]triazolo[4,3-a]quinazolin-5-amine] | 3.8 nM | 2.81 nM |
| Fc1ccc2c(c1)c(N(CC(F)F)c1ccnc(C#CC3(C(F)(F)F)CC3)c1)nc1nncn12 [Example 103, N-(2,2-difluoroethyl)-7-fluoro-N-(2-((1-(trifluoromethyl)cyclopropyl)ethynyl)pyridin-4-yl)-[1,2,4]triazolo[4,3-a]quinazolin-5-amine] | 5.13 nM | 2.27 nM |
| Cc1nnc2nc(N(CC(F)F)c3cc(F)cc(C#CC(C)(C)O)c3)c3c(F)cc(Cl)cc3n12 [Example 104, 4-(3-((8-chloro-6-fluoro-1-methyl-[1,2,4]triazolo[4,3-a]quinazolin-5-yl)(2,2-difluoroethyl)amino)-5-fluorophenyl)-2-methylbut-3-yn-2-ol] | 8.06 nM | 8.95 nM |
| Cc1cc(F)cc2c(N(CC(F)F)c3cc(F)cc(C#CC(C)(C)O)c3)nc3nncn3c12 [Example 105] | 30.6 nM | 27.1 nM |
| Cc1cc(F)cc2c(N(CC(F)F)c3cc(F)cc(C#CC4(C(F)(F)F)CC4)c3)nc3nncn3c12 [Example 106] | 118 nM | 2.53 nM |
| Cc1cccc2c(N3CCOCc4c(C#CC5(C(C)(F)F)CC5)cccc43)nc3nncn3c12 [Example 107] | 39.9 nM | 3.21 nM |
| Cc1nnc2nc(N3CCOCc4c(C#CC5CC5)cccc43)c3cc(C#N)ccc3n12 [Example 108] | 4.69 nM | 2.84 nM |
| Cc1nnc2nc(N3CCOCc4c(C#CC5(C)CC5)cccc43)c3cc(C#N)ccc3n12 [Example 109] | 7.3 nM | 1.67 nM |
| CC(C)(O)C#Cc1cccc2c1CCCCN2c1nc2nncn2c2c(F)ccc(F)c12 [Example 110] | 2.76 nM | 9.8 nM |
| CC(C)(O)C#Cc1cccc2c1COCCN2c1nc2nncn2c2c(F)ccc(F)c12 [Example 111] | 6.5 nM | 45.8 nM |
| Fc1ccc(F)c2c1c(N1CCOCc3c(C#CC4(C(F)(F)F)CC4)cccc31)nc1nncn12 [Example 112] | 3.48 nM | 0.716 nM |
| CC1(C#Cc2cccc3c2COCCN3c2nc3nncn3c3c(F)ccc(F)c23)CC1 [Example 113] | 1.44 nM | 0.9 nM |
| CC(C)(O)C#Cc1cc(F)cc2c1CCCN2c1nc2nncn2c2c(F)cc(F)cc12 [Example 114] | 6.76 nM | 12.5 nM |
| Cc1nnc2nc(N3CCCOc4c(C#CC5(C(C)(F)F)CC5)cccc43)c3c(F)c(F)ccc3n12 [Example 115] | 32.8 nM | 2.37 nM |
| Cc1nnc2nc(N3CCCOc4c(C#CC5CC5)cccc43)c3c(F)c(F)ccc3n12 [Example 116] | 5.19 nM | 1.07 nM |
| CC1(C#Cc2cccc3c2CCCN3c2nc3nncn3c3c(F)ccc(F)c23)CC1 [Example 117] | 14.8 nM | 1.32 nM |

| Compound | IC50 [1] | EC50 [2] |
| --- | --- | --- |
| Fc1cc(F)c2c(c1)c(N1CCCc3c(C#CC4(C(F)(F)F)CC4)cccc31)nc1nncn12 [Example 118] | 4.89 nM | 5.81 nM |
| Fc1cc(F)c2c(c1)c(N1CCCc3c(C#CC4(C(F)F)CC4)cccc31)nc1nncn12 [Example 119] | 2.13 nM | 2.86 nM |
| CC(C)(O)C#Cc1cccc2c1CCCN2c1nc2nncn2c2c(F)cc(F)cc12 [Example 120] | 4.99 nM | 12.3 nM |
| Fc1cccc2c1c(N1CCCOc3c(C#CC4(C(F)(F)F)CC4)cccc31)nc1nncn12 [Example 121] | 22.8 nM | 4.95 nM |
| Cc1nnc2nc(N3CCCOc4c(C#CC5(C)CC5)cccc43)c3c(F)c(F)ccc3n12 [Example 122] | 5.27 nM | 2.63 nM |
| CC(C)(C#Cc1cccc2c1OCCCN2c1nc2nncn2c2cccc(F)c12)C(F)(F)F [Example 123] | 31.5 nM | 0.533 nM |
| CC(C)(C#Cc1cccc2c1COCCN2c1nc2nnc(N)n2c2cccc(F)c12)C(F)(F)F [Example 124, 6-fluoro-5-(6-(4,4,4-trifluoro-3,3-dimethylbut-1-yn-1-yl)-2,3-dihydrobenzo[e][1,4]oxazepin-1(5H)-yl)-[1,2,4]triazolo[4,3-a]quinazolin-1-amine] | 16.8 nM | 0.781 nM |
| Cc1nnc2nc(N3CCCc4c(C#CC(C)(C)C#N)cccc43)c3c(Cl)cccc3n12 [Example 125, 4-(1-(6-chloro-1-methyl-[1,2,4]triazolo[4,3-a]quinazolin-5-yl)-1,2,3,4-tetrahydroquinolin-5-yl)-2,2-dimethylbut-3-ynenitrile] | 16.4 nM | 2.9 nM |
| Cc1nnc2nc(N3CCCc4c(C#CC5(C(F)F)CC5)cccc43)c3c(Cl)cccc3n12 [Example 126, 6-chloro-5-(5-((1-(difluoromethyl)cyclopropyl)ethynyl)-3,4-dihydroquinolin-1(2H)-yl)-1-methyl-[1,2,4]triazolo[4,3-a]quinazoline] | 17.2 nM | 1.16 nM |
| CC1(C#Cc2cccc3c2COCCN3c2nc3nnc(N)n3c3cccc(F)c23)CC1 [Example 127] | 8.42 nM | 2.02 nM |
| Cc1nnc2nc(N(CC(F)F)c3cc(F)cc(-c4ccc(C(C)(C)O)cc4)c3)c3c(F)cccc3n12 [Example 128, 2-(3′-((2,2-difluoroethyl)(6-fluoro-1-methyl-[1,2,4]triazolo[4,3-a]quinazolin-5-yl)amino)-5′-fluoro-[1,1′-biphenyl]-4-yl)propan-2-ol] | 20.8 nM | 7.48 nM |
| Cc1nnc2nc(N3CCCc4c(C#CC5CCCCO5)cccc43)c3c(F)cccc3n12 (stereo not shown) [Example 129, 6-fluoro-1-methyl-5-(5-((tetrahydro-2H-pyran-2-yl)ethynyl)-3,4-dihydroquinolin-1(2H)-yl)-[1,2,4]triazolo[4,3-a]quinazoline] | 7.55 nM | 1.22 nM |
| Cc1nnc2nc(N3CCCc4c(C#CC5CCCCO5)cccc43)c3cc(F)ccc3n12 (stereo not shown) [Example 130, 7-fluoro-1-methyl-5-(5-((tetrahydro-2H-pyran-2-yl)ethynyl)-3,4-dihydroquinolin-1(2H)-yl)-[1,2,4]triazolo[4,3-a]quinazoline] | 4.19 nM | 1.98 nM |
| Cc1nnc2nc(N3CCCc4c(C#CC5CC5)cccc43)c3c(F)c(F)ccc3n12 [Example 131, 5-[5-(2-cyclopropylethynyl)-3,4-dihydro-2H-quinolin-1-yl]-6,7-difluoro-1-methyl-[1,2,4]triazolo[4,3-a]quinazoline] | 8.68 nM | 2.14 nM |
| Cc1nnc2nc(N3CCOCc4c3ccnc4C#CC3(C)CC3)c3cc(F)ccc3n12 [Example 132, 1-(7-fluoro-1-methyl-[1,2,4]triazolo[4,3-a]quinazolin-5-yl)-6-((1-methylcyclopropyl)ethynyl)-1,2,3,5-tetrahydropyrido[4,3-e][1,4]oxazepine] | 3.1 nM | 6.64 nM |
| Cc1nnc2nc(N3CCOCc4c3ccnc4C#CC3(C(C)(F)F)CC3)c3cc(F)ccc3n12 [Example 133, 6-((1-(1,1-difluoroethyl)cyclopropyl)ethynyl)-1-(7-fluoro-1-methyl-[1,2,4]triazolo[4,3-a]quinazolin-5-yl)-1,2,3,5-tetrahydropyrido[4,3-e][1,4]oxazepine] | 15.1 nM | 5.69 nM |
